Measured values: the supplement of paper PMC11821682

How the values were obtained:
Danio rerio embryo [1] = assay: LEL larval photomotor response dark phase 120 hpf
Danio rerio embryo [2] = assay: BMC10 mortality 24-120 hpf; higher = less toxic
Procedure: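 ZBEscreen: dechorionated Tropical 5D zebrafish embryos were exposed from 4 hpf in 96-well plates (1% DMSO, 28 °C). All compounds were first tested at 100 µM; hits were retested at 0.005-100 µM. Morphology and mortality were scored at 120 hpf and fitted as BMC10 (3-parameter log-logistic, extra risk). The embryonic photomotor response at 24 hpf and the larval photomotor response at 120 hpf are given as lowest effect levels (K-S test, p<0.01). NA = not significant up to 100 µM; NT = not tested.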

HL-60 = assay: Cell Health Index (toxicity pseudo-probability over dose series) (index 0-1); higher = more cytotoxic / cell stress;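 further: HL-60 cells exposed 4 h at 37 °C to ten threefold dilutions spanning 5 nM to 100 µM, multiparametric flow cytometry features scored by machine-learning classification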
Danio rerio embryo [3] = assay: BMC10 any morphological effect or mortality at 120 hpf; higher = less toxic
Danio rerio embryo [4] = assay: LEL embryonic photomotor response 24 hpf

SMILES | LEL larval photomotor response dark phase 120 hpf (Danio rerio embryo [1]) [µM] | BMC10 mortality 24-120 hpf (Danio rerio embryo [2]) [µM] | Cell Health Index (HL-60) | BMC10 any morphological effect or mortality (Danio rerio embryo [3]) [µM] | LEL embryonic photomotor response 24 hpf (Danio rerio embryo [4]) [µM]
Cc1ccc2c(c1)c1c3n2CCNC3CCC1 (stereo not given) [Pirlindole] | > 100 | 12 | 0.298 | 5.42 | 33.3
CCC(C)n1ncn(-c2ccc(N3CCN(c4ccc(OC[C@H]5CO[C@](Cn6cncn6)(c6ccc(Cl)cc6Cl)O5)cc4)CC3)cc2)c1=O (stereo not given in full) [Itraconazole] | 0.41 | 0.276 | 0.382 | 0.113 | 3.7
CN1CCN(C(c2ccc(Cl)cc2)c2ccc(Cl)cc2)CC1 [1-[bis(4-chlorophenyl)methyl]-4-methyl-piperazine] | > 100 | 16.1 | 0.934 | 12.6 | 11.1
CC[C@H](C)[C@H]1O[C@]2(CC[C@@H]1C)C[C@@H]1C[C@@H](C/C=C(\C)[C@@H](O[C@H]3C[C@H](OC)[C@@H](O[C@H]4C[C@H](OC)[C@@H](O)[C@H](C)O4)[C@H](C)O3)[C@@H](C)/C=C/C=C3\CO[C@@H]4[C@H](O)C(C)=C[C@@H](C(=O)O1)[C@]34O)O2 [Ivermectin B1a] | 0.41 | 4.04 | 0.687 | 0.156 | 1.23
COc1ccc(-c2oc3cc(OC)c(OC)c(O)c3c(=O)c2OC)cc1O [Casticin] | > 100 | 1.28 | 0.355 | 1.26 | 3.7
COc1ccccc1NC(=O)c1ccccc1Sc1ccc([N+](=O)[O-])cc1 [RN-18] | > 100 | 11.8 | 0.491 | 10 | 11.1
COc1ccc2cc1Oc1ccc(cc1)C[C@H]1c3cc(c(OC)cc3CCN1C)Oc1c(O)c(OC)cc3c1[C@H](C2)N(C)CC3 [Fangchinoline] | > 100 | 46.2 | 0.884 | 6.15 | > 100
C[C@H]1CCC/C=C/[C@@H]2C[C@H](O)C[C@H]2[C@H](O)/C=C/C(=O)O1 [Brefeldin A] | > 100 | 3.95 | 0.226 | 1.09 | 11.1
CN1CCN(C(c2ccccc2)c2ccc(Cl)cc2)CC1.Cl (stereo not given) [Chlorcyclizine] | > 100 | 15.9 | 0.478 | 8.84 | 11.1
C/C1=C/CC/C(C)=C/CC(C)(C)/C=C/C1=O [Zerumbone] | > 100 | 9.91 | 0.238 | 2.66 | 11.1
CC(C)(C)C(O)C(Oc1ccc(-c2ccccc2)cc1)n1cncn1 (stereo not given) [Bitertanol] | 11.1 | 30.3 | 0.408 | 16.4 | 33.3
COC(=O)C[C@](O)(CCC(C)(C)O)C(=O)O[C@@H]1C(OC)=C[C@]23CCCN2CCc2cc4c(cc2[C@H]13)OCO4 [Harringtonine] | > 100 | 26.6 | 0.376 | 10.8 | 33.3
O=C(N/N=C/c1ccc(O)c(O)c1)c1cc2ccccc2cc1O [Dynasore] | > 100 | 7.92 | 0.48 | 10.2 | 33.3
CCc1nc(N)nc(N)c1-c1ccc(Cl)cc1 [Pyrimethamine] | > 100 | 30 | 0.324 | 3.56 | 100
CC1(C)CC[C@]2(C(=O)O)CC[C@]3(C)C(=CC[C@@H]4[C@@]5(C)CC[C@H](O)C(C)(C)[C@@H]5CC[C@]43C)[C@@H]2C1 [Oleanolic acid] | > 100 | 8.42 | 0.354 | 3.43 | > 100
O=C1Nc2ccc(Cl)cc2[C@@](C#CC2CC2)(C(F)(F)F)O1 [Efavirenz] | > 100 | 12 | 0.874 | 1.3 | 3.7
CN1Cc2c(ccc3c2OCO3)[C@@H]2[C@H]1c1cc3c(cc1C[C@@H]2O)OCO3 [Chelidonine] | > 100 | 0.079 | 0.277 | 0.064 | > 100
COc1cc(/C=C\C(=O)CC(=O)/C=C\c2ccc(O)c(OC)c2)ccc1O [Curcumin] | > 100 | 40 | 0.401 | 30.8 | > 100
CC1(C)C=Cc2c(ccc3c2OC[C@@H](c2ccc(O)cc2O)C3)O1 [Glabridin] | > 100 | 9.73 | 0.58 | 3.57 | 11.1
CC(C)C(=O)SCCCCCCC(=O)Nc1nc(-c2ccccc2)cs1 [NCH-51] | > 100 | 0.624 | 0.268 | 0.188 | 0.41
C=CC(=O)N1CC/C(=C\c2ccc(F)c([N+](=O)[O-])c2)C(=O)/C(=C/c2ccc(F)c([N+](=O)[O-])c2)C1 [VLX1570] | > 100 | 1.38 | 0.884 | 1.26 | > 100
